Values after ≈ are worked out from the molar mass of the structure shown. Read-outs that look alike come from different tables or passages of the source. One block for each compound: values may come before it.
Experiments:
B. subtilis ATCC 6633 [1] = experiment: Qualitative antimicrobial screening, adapted disk diffusion; type: cell-based, Bacillus subtilis; set-up: zone of inhibition: dose or concentration left out as unconfirmed
Description: (§1) The antimicrobial activities of the synthesized compounds were determined against ATCC reference and clinical microbial strains, i.e., Bacillus subtilis ATCC 6633, Staphylococcus aureus ATCC 25923, Escherichia coli ATCC 25922, Klebsiella pneumoniae 350, Pseudomonas aeruginosa 1671 and Candida albicans ATCC 10231, using as positive controls the antibiotic ticarcillin and the antifungal agent fluconazole. Microbial suspensions of 1.5 × 10^8 CFU/mL corresponding to 0.5 McFarland density obtained from 15–18 h bacterial cultures developed on solid media were used in our experiments. The antimicrobial activity was tested on Mueller-Hinton Agar (MHA) medium, while a Yeast Peptone Glucose (YPG) medium was used in case of C. albicans. The obtained compounds were solubilized in DMSO and the starting stock solution was of 5000 μg/mL concentration. The qualitative screening was performed by an adapted disk diffusion method as previously reported.

S. aureus ATCC 25923 [2] = experiment: as above; type: cell-based, Staphylococcus aureus; set-up: zone of inhibition: dose or concentration left out as unconfirmed; conditions: Staphylococcus aureus
Description: as §1

P. aeruginosa ATCC 27853 = experiment: as above; type: cell-based; set-up: zone of inhibition: dose or concentration left out as unconfirmed; conditions: Pseudomonas aeruginosa
E. coli ATCC 25922 [3] = experiment: as above; type: cell-based, Escherichia coli; set-up: zone of inhibition: dose or concentration left out as unconfirmed; conditions: Escherichia coli
Description: as §1

K. pneumoniae 1771 = experiment: as above; type: cell-based, Klebsiella pneumoniae; set-up: zone of inhibition: dose or concentration left out as unconfirmed
C. albicans ATCC 10231 [4] = experiment: as above; type: cell-based, Candida albicans; set-up: zone of inhibition: dose or concentration left out as unconfirmed
Description: as §1

B. subtilis ATCC 6633 [5] = experiment: MIC by liquid medium microdilution; type: cell-based, Bacillus subtilis; conditions: B. subtilis ATCC 6633, 24 h at 37 °C
Description: as §1
(§2) The quantitative assay of the antimicrobial activity was performed by the liquid medium microdilution method, in 96 multi-well plates, in order to establish the minimal inhibitory concentration (MIC). In this purpose, serial two-fold dilutions of the compounds ranging between 5000 and 4.8 µg/mL were performed in a 200 µL volume of broth and each well was seeded with 50 µL of microbial inoculum. Sterility control (wells containing only culture medium) and culture controls (wells containing culture medium seeded with the microbial inoculum) were used. The influence of the DMSO solvent was also quantified in a series of wells containing DMSO [36], diluted accordingly with the dilution scheme used for the compounds and for the positive controls.

C. albicans ATCC 10231 [6] = experiment: MIC by liquid medium microdilution; type: cell-based; conditions: Candida albicans, ATCC10231, 24 h
Description: as §1, §2

E. coli ATCC 25922 [7] = experiment: MIC by liquid medium microdilution; type: cell-based; conditions: Escherichia coli
Description: as §1, §2

S. aureus ATCC 25923 [8] = experiment: MIC by liquid medium microdilution; type: cell-based; conditions: Staphylococcus aureus
Description: as §1, §2

B. subtilis ATCC 6633 [9] = experiment: Antibiofilm activity (MBEC), micro-titer method on plastic inert substratum; type: cell-based, Bacillus subtilis; conditions: B. subtilis ATCC 6633 biofilm on plastic substratum
Description: (§3) The assessment of the new compounds influence on the microbial ability to colonize the plastic inert substratum was performed by the micro-titer method, following previously described protocols. The absorbance at 490 nm was measured with an LB 911 ELISA reader (Apollo, Berthold Technologies GmbH & Co. KG, Bad Wildbad, Germany). All biological experiments were performed in triplicates.

S. aureus ATCC 25923 [10] = experiment: as above; type: cell-based, Staphylococcus aureus; conditions: S. aureus ATCC 25923 biofilm on plastic substratum
Description: as §3

E. coli ATCC 25922 [11] = experiment: as above; type: cell-based, Escherichia coli; conditions: E. coli ATCC 25922 biofilm on plastic substratum
Description: as §3

C. albicans ATCC 10231 [12] = experiment: as above; type: cell-based, Candida albicans; conditions: C. albicans ATCC 10231 biofilm on plastic substratum
Description: as §3

[13] = Cytotoxicity, CellTiter Assay; type: cell-based; conditions: human, HCT8 cells, 400–10 µg/mL tested
Description: (§4) For the in vitro assessment of the cytotoxic effect, the HCT8 cells and the CellTiter Assay kit (Promega, Madison, WI, USA) and Annexin V-FITC Apoptosis Detection Kit I (BD Bioscience Pharmingen, Franklin Lakes, NJ, USA) were used. Briefly, for CellTiter Assay, 1 × 10^4 cells/well were plated in 96 well plate and 24 h after, were treated with the new compound at final concentration between 400 µg/mL–10 µg/mL. The viability was evaluated after 24 h by adding CellTiter aqueous solution and reading to spectrophotometer according to the manufacturer indications. The IC50 were calculated from the percent of viability reported to untreated cells using on line tools https://www.aatbio.com/tools/ic50-calculator. For Annexin V-FITC Apoptosis Detection Kit I, 5 × 10^5 cells were seeded in 3.5 cm diameter Petri dish and treated with 100 µg/mL compounds solution for 24 h. The total cells were resuspended in 100 µL of binding buffer, and stained with 5 µL Annexin V-FITC and 5 µL propidium iodide for 10 min in dark. At least 10,000 events from each sample were acquired using a flow cytometer (Beckman Coulter, Indianapolis, IN, USA). The percentage of cells affected by the treatment was determined by subtracting the percentage of apoptotic/necrotic cells in the untreated population from percentage of apoptotic cells in the treated population.

[14] = Annexin V-FITC/propidium iodide apoptosis analysis by flow cytometry; type: cell-based; conditions: human, HCT8 cells, Annexin V-FITC/PI, read-out: viable cells (Q4)
Description: as §4

Compound: Cc1cccc(NC(=O)ON=C2c3ccccc3COc3ccccc32)c1 [Compound 7a, 6,11-Dihydrodibenz[b,e]oxepin-11(6H)one O-(3-tolyl-carbamoyl)oxime]
growth inhibition diameter (B. subtilis ATCC 6633 [1]; B. subtilis ATCC 6633, adapted diffusion assay): anti-B. subtilis
zone of inhibition (B. subtilis ATCC 6633 [1]; Bacillus subtilis, ATCC6633, read-out: growth inhibition diameter): 8 mm
zone of inhibition (S. aureus ATCC 25923 [2]; ATCC25923, read-out: growth inhibition diameter): 0 mm
zone of inhibition (P. aeruginosa ATCC 27853; ATCC27853, read-out: growth inhibition diameter): 0 mm
zone of inhibition (E. coli ATCC 25922 [3]; ATCC25922, read-out: growth inhibition diameter): 0 mm
zone of inhibition (K. pneumoniae 1771; Klebsiella pneumoniae, 1771, read-out: growth inhibition diameter): 0 mm
growth inhibition diameter (C. albicans ATCC 10231 [4]; C. albicans ATCC 10231, adapted diffusion assay): anti-C. albicans activity
zone of inhibition (C. albicans ATCC 10231 [4]; Candida albicans, ATCC10231, read-out: growth inhibition diameter): 8 mm
MIC (B. subtilis ATCC 6633 [5]): 4.8 µg/mL (≈ 13.4 µM)
MIC (B. subtilis ATCC 6633 [5]; Bacillus subtilis, ATCC6633, 24 h): 4.8 to 39 µg/mL (≈ 13.4 to 109 µM)
MIC (C. albicans ATCC 10231 [6]): 4.8 µg/mL (≈ 13.4 µM)
MIC (E. coli ATCC 25922 [7]; ATCC25922, 24 h): > 5000 µg/mL
MIC (S. aureus ATCC 25923 [8]; ATCC25923, 24 h): > 5000 µg/mL
MBEC (B. subtilis ATCC 6633 [9]): 156 µg/mL
MBEC (S. aureus ATCC 25923 [10]): 39 µg/mL
MBEC (E. coli ATCC 25922 [11]): 625 µg/mL
MBEC (C. albicans ATCC 10231 [12]): 39 µg/mL
IC50 at 24 h [13]: 264 µg/mL (≈ 737 µM)
viability at 24 h, 100 µg/mL [14]: 84.2%

MIC (B. subtilis ATCC 6633 [5]; Bacillus subtilis, ATCC6633, 24 h, read-out: MIC): 78 µg/mL (≈ 203 µM)
MIC (E. coli ATCC 25922 [7]; ATCC25922, E. coli ATCC 25922, 24 h at 37 °C, read-out: MIC): 19.5 µg/mL (≈ 50.7 µM)
MIC (S. aureus ATCC 25923 [8]; ATCC25923, S. aureus ATCC 25923, 24 h at 37 °C, read-out: MIC): 9.76 µg/mL (≈ 25.4 µM)
Compound: CC1(C)S[C@@H]2[C@H](NC(=O)[C@H](C(=O)O)c3ccsc3)C(=O)N2[C@H]1C(=O)O [Ticarcillin, ticarcillin, reference compound]
zone of inhibition at 5000 µg/mL (stock) (B. subtilis ATCC 6633 [1]; Bacillus subtilis, ATCC6633, B. subtilis ATCC 6633, adapted diffusion assay, read-out: growth inhibition diameter): 15 mm
zone of inhibition at 5000 µg/mL (stock) (S. aureus ATCC 25923 [2]; ATCC25923, S. aureus ATCC 25923, adapted diffusion assay, read-out: growth inhibition diameter): 21 mm
zone of inhibition at 5000 µg/mL (stock) (P. aeruginosa ATCC 27853; ATCC27853, P. aeruginosa ATCC 27853, adapted diffusion assay, read-out: growth inhibition diameter): 17 mm
zone of inhibition at 5000 µg/mL (stock) (E. coli ATCC 25922 [3]; ATCC25922, E. coli ATCC 25922, adapted diffusion assay, read-out: growth inhibition diameter): 24 mm
zone of inhibition at 5000 µg/mL (stock) (K. pneumoniae 1771; Klebsiella pneumoniae, K. pneumoniae 1771, adapted diffusion assay, read-out: growth inhibition diameter): 0 mm
MBEC (B. subtilis ATCC 6633 [9]): 156 µg/mL
MBEC (S. aureus ATCC 25923 [10]): 156 µg/mL
MBEC (E. coli ATCC 25922 [11]): 625 µg/mL
